Source: patent publication US20230085307A1, “PYRIDAZINONE COMPOUND AND HERBICIDE” (NISSAN CHEMICAL CORPORATION, priority 2019, published 2023)

Key:
[1] = system: wild oat; test: Test Example 4: herbicidal effect by soil treatment (Table 19, symbol I); format: in vivo, wild oat (Avena fatua); conditions: amount of applied herbicide 320 g/ha
Procedure, shortened: (§1)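 Three weeks of greenhouse growth at 25° C. to 30° C. followed a uniform surface spray of water-diluted emulsion at a predetermined herbicide amount. Seeds had been sown beforehand under about 1.5 cm of sterilized diluvial soil. Grading followed criteria set out in an earlier test.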

[2] = system: windgrass; test: Test Example 4: herbicidal effect by soil treatment (Table 19, symbol L); format: in vivo, windgrass (Apera spica-venti); conditions: amount of applied herbicide 320 g/ha
Procedure, shortened: as §1

[3] = system: redroot pigweed; test: Test Example 4: herbicidal effect by soil treatment (Table 19, symbol N); format: in vivo, redroot pigweed (Amaranthus retroflexus); conditions: amount of applied herbicide 320 g/ha
Procedure, shortened: as §1

[4] = system: redroot pigweed; test: Test Example 5: herbicidal effect by foliage application, plastic box (Table 20, symbol N); format: in vivo, redroot pigweed (Amaranthus retroflexus); conditions: foliage application, 320 g/ha, three weeks after application
Procedure, shortened: (§2)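 Plants sown in sterilized diluvial soil and grown 14 days in a greenhouse at 25° C to 30° C, then sprayed on the foliage with the compound's emulsion diluted in water to a predetermined herbicide amount. Injury to weeds and crops scored three weeks after application on a visual rating scale.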

[5] = system: wild oat; test: Test Example 5: herbicidal effect by foliage application, plastic box (Table 20, symbol I); format: in vivo, wild oat (Avena fatua); conditions: foliage application, 320 g/ha, three weeks after application
Procedure, shortened: as §2

[6] = system: oval-leafed pondweed; test: Test Example 1: herbicidal activity, application before weed generation under submerged conditions (Table 16, symbol C); format: in vivo, oval-leafed pondweed (Monochoria vaginalis); conditions: amount of applied herbicide 320 g/ha
Procedure, shortened: (§3)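 Emulsion formulation, water-diluted to set dose, was put onto the flooded surface (4 cm depth, alluvial soil) the same day weeds were sown and 2.5-leaf rice transplanted. After 3 weeks at 25-30 °C under glass, each species was rated 0 (≤5% kill) to 5 (≥90% kill).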

[7] = system: Chinese sprangletop; test: Test Example 3: herbicidal effect by foliage application, Wagner pot (Table 18, symbol D); format: in vivo, chinese sprangletop (Leptochloa chinensis); conditions: 320 g/ha
Procedure, shortened: (§4)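 Plants were sown in alluvial soil held under 0.1–0.5 cm standing water and grown 14 days in a greenhouse at 25–30 °C. An emulsifiable formulation, water-diluted to the set dose, was then sprayed onto the foliage, and effects were scored three weeks later using previously defined criteria.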

[8] = system: persian speedwell; test: Test Example 5: herbicidal effect by foliage application, plastic box (Table 20, symbol R); format: in vivo, Persian speedwell (Veronica persica); conditions: foliage application, 320 g/ha, three weeks after application
Procedure, shortened: as §2

[9] = system: chickweed; test: Test Example 4: herbicidal effect by soil treatment (Table 19, symbol P); format: in vivo, common chickweed (Stellaria media); conditions: amount of applied herbicide 320 g/ha
Procedure, shortened: as §1

[10] = system: lambsquarters; test: Test Example 5: herbicidal effect by foliage application, plastic box (Table 20, symbol O); format: in vivo, lambsquarters (Chenopodium album); conditions: foliage application, 320 g/ha, three weeks after application
Procedure, shortened: as §2

[11] = system: southern crabgrass; test: Test Example 5: herbicidal effect by foliage application, plastic box (Table 20, symbol F); format: in vivo, southern crabgrass (Digitaria ciliaris); conditions: foliage application, 320 g/ha, three weeks after application
Procedure, shortened: as §2

[12] = system: windgrass; test: Test Example 5: herbicidal effect by foliage application, plastic box (Table 20, symbol L); format: in vivo, windgrass (Apera spica-venti); conditions: foliage application, 320 g/ha, three weeks after application
Procedure, shortened: as §2

[13] = system: Japanese bulrush; test: Test Example 2: herbicidal activity, application during weed generation under submerged conditions (Table 17, symbol B); format: in vivo, Japanese bulrush (Schoenoplectus juncoides); conditions: AAH 320 g/ha; application during weed generation, submerged conditions
Procedure, shortened: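 Wagner pot, alluvial soil, 4 cm flood; mixed sowing of all species; greenhouse 25° C.–30° C. Emulsifiable formulation, water-diluted to predetermined dose, applied to paddy water at 1–2 leaf stage. Effect rated at 3 wk using the earlier test's scoring criteria.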

[14] = system: rice flat sedge; test: Test Example 3: herbicidal effect by foliage application, Wagner pot (Table 18, symbol E); format: in vivo, rice flat sedge (Cyperus iria); conditions: 320 g/ha
Procedure, shortened: as §4

[15] = system: green foxtail; test: Test Example 4: herbicidal effect by soil treatment (Table 19, symbol G); format: in vivo, green foxtail (Setaria viridis); conditions: amount of applied herbicide 320 g/ha
Procedure, shortened: as §1

[16] = system: Japanese bulrush; test: Test Example 1: herbicidal activity, application before weed generation under submerged conditions (Table 16, symbol B); format: in vivo, Japanese bulrush (Schoenoplectus juncoides); conditions: amount of applied herbicide 320 g/ha
Procedure, shortened: as §3

[17] = system: Italian ryegrass; test: Test Example 4: herbicidal effect by soil treatment (Table 19, symbol K); format: in vivo, Italian ryegrass (Lolium multiflorum); conditions: amount of applied herbicide 320 g/ha
Procedure, shortened: as §1

Row | Compound | I: wild oat, herbicidal effect grade [1] | L: windgrass, herbicidal effect grade [2] | N: redroot pigweed, herbicidal effect grade [3] | N: redroot pigweed, herbicidal effect grade [4] | I: wild oat, herbicidal effect grade [5] | Herbicidal effect, C: oval-leafed pondweed [6] | herbicidal effect on Chinese sprangletop (D) [7] | R: persian speedwell, herbicidal effect grade [8] | P: chickweed, herbicidal effect grade [9] | O: lambsquarters, herbicidal effect grade [10] | F: southern crabgrass, herbicidal effect grade [11] | L: windgrass, herbicidal effect grade [12] | herbicidal effect rating, B: Japanese bulrush [13] | herbicidal effect on rice flat sedge (E) [14] | G: green foxtail, herbicidal effect grade [15] | Herbicidal effect, B: Japanese bulrush [16] | K: Italian ryegrass, herbicidal effect grade [17] | also measured
1 | COc1ccccc1-c1sc2cc(OCC(F)F)ccc2c1-c1c(O)c(C)nn(C)c1=O [3-114] | 0 (Herbicidal rate of 5% or less (almost no effect)) | 5 (Herbicidal rate of 90% or more (almost completely withered)) | 5 (Herbicidal rate of 90% or more (almost completely withered)) | 5 (Herbicidal rate of 90% or more (almost completely withered)) | 5 (Herbicidal rate of 90% or more (almost completely withered)) | 5 (Herbicidal rate of 90% or more (almost completely withered)) | 4 (Herbicidal rate of 70% or more and less than 90%) | 5 (Herbicidal rate of 90% or more (almost completely withered)) | 5 (Herbicidal rate of 90% or more (almost completely withered)) | 5 (Herbicidal rate of 90% or more (almost completely withered)) | 5 (Herbicidal rate of 90% or more (almost completely withered)) | 5 (Herbicidal rate of 90% or more (almost completely withered)) | 4 (Herbicidal rate of 70% or more and less than 90%) | 5 (Herbicidal rate of 90% or more (almost completely withered)) | 5 (Herbicidal rate of 90% or more (almost completely withered)) | 5 (Herbicidal rate of 90% or more (almost completely withered)) | 5 (Herbicidal rate of 90% or more (almost completely withered)) | –
2 | CCOc1ccccc1-c1sc2cc(OCCOC)ccc2c1-c1c(O)c(C)nn(C)c1=O [3-123] | 4 (Herbicidal rate of 70% or more and less than 90%) | 5 (Herbicidal rate of 90% or more (almost completely withered)) | 5 (Herbicidal rate of 90% or more (almost completely withered)) | 5 (Herbicidal rate of 90% or more (almost completely withered)) | 5 (Herbicidal rate of 90% or more (almost completely withered)) | 5 (Herbicidal rate of 90% or more (almost completely withered)) | 5 (Herbicidal rate of 90% or more (almost completely withered)) | 5 (Herbicidal rate of 90% or more (almost completely withered)) | 5 (Herbicidal rate of 90% or more (almost completely withered)) | 5 (Herbicidal rate of 90% or more (almost completely withered)) | 5 (Herbicidal rate of 90% or more (almost completely withered)) | 5 (Herbicidal rate of 90% or more (almost completely withered)) | 3 (Herbicidal rate of 40% or more and less than 70%) | 5 (Herbicidal rate of 90% or more (almost completely withered)) | 5 (Herbicidal rate of 90% or more (almost completely withered)) | 5 (Herbicidal rate of 90% or more (almost completely withered)) | 5 (Herbicidal rate of 90% or more (almost completely withered)) | –
3 | COc1ccccc1-c1sc2cc(OCCSC)ccc2c1-c1c(O)c(C)nn(C)c1=O [3-125] | 0 (Herbicidal rate of 5% or less (almost no effect)) | 3 (Herbicidal rate of 40% or more and less than 70%) | 5 (Herbicidal rate of 90% or more (almost completely withered)) | 5 (Herbicidal rate of 90% or more (almost completely withered)) | 5 (Herbicidal rate of 90% or more (almost completely withered)) | 1 (Herbicidal rate of 5% or more and less than 20%) | 3 (Herbicidal rate of 40% or more and less than 70%) | 5 (Herbicidal rate of 90% or more (almost completely withered)) | 5 (Herbicidal rate of 90% or more (almost completely withered)) | 4 (Herbicidal rate of 70% or more and less than 90%) | 5 (Herbicidal rate of 90% or more (almost completely withered)) | 5 (Herbicidal rate of 90% or more (almost completely withered)) | 3 (Herbicidal rate of 40% or more and less than 70%) | 5 (Herbicidal rate of 90% or more (almost completely withered)) | 2 (Herbicidal rate of 20% or more and less than 40%) | 3 (Herbicidal rate of 40% or more and less than 70%) | 5 (Herbicidal rate of 90% or more (almost completely withered)) | –
4 | COc1ccccc1-c1sc2cc(OCC3CCCO3)ccc2c1-c1c(O)c(C)nn(C)c1=O (centres unmarked) [3-133] | – | – | – | 5 (Herbicidal rate of 90% or more (almost completely withered)) | 4 (Herbicidal rate of 70% or more and less than 90%) | 4 (Herbicidal rate of 70% or more and less than 90%) | 3 (Herbicidal rate of 40% or more and less than 70%) | 5 (Herbicidal rate of 90% or more (almost completely withered)) | – | 5 (Herbicidal rate of 90% or more (almost completely withered)) | 4 (Herbicidal rate of 70% or more and less than 90%) | 5 (Herbicidal rate of 90% or more (almost completely withered)) | 3 (Herbicidal rate of 40% or more and less than 70%) | 5 (Herbicidal rate of 90% or more (almost completely withered)) | – | 3 (Herbicidal rate of 40% or more and less than 70%) | – | Herbicidal effect by soil treatment, I: wild oat [1]: 1 (Herbicidal rate of 5% or more and less than 20%); Herbicidal effect by soil treatment, L: windgrass [2]: 5 (Herbicidal rate of 90% or more (almost completely withered)); Herbicidal effect by soil treatment, N: redroot pigweed [3]: 5 (Herbicidal rate of 90% or more (almost completely withered)); Herbicidal effect by soil treatment, P: chickweed [9]: 4 (Herbicidal rate of 70% or more and less than 90%); Herbicidal effect by soil treatment, G: green foxtail [15]: 5 (Herbicidal rate of 90% or more (almost completely withered)); Herbicidal effect by soil treatment, K: Italian ryegrass [17]: 5 (Herbicidal rate of 90% or more (almost completely withered))
